ChEMBL document CHEMBL5465560, “Selectivity Literature for EUbOPEN Chemogenomic Library” (2024)
Blank lines part the entries; values can stand above or below the compound they belong to.

Key:
[1] = molecular target: T1, Bone morphogenetic protein receptor type-2 (Homo sapiens) (UniProt Q13873); assay: Selectivity interaction (KinomeScan (DiscoverX)) EUB0001079a BMPR2; details: at 1 µM
T1 sequence (whole entry): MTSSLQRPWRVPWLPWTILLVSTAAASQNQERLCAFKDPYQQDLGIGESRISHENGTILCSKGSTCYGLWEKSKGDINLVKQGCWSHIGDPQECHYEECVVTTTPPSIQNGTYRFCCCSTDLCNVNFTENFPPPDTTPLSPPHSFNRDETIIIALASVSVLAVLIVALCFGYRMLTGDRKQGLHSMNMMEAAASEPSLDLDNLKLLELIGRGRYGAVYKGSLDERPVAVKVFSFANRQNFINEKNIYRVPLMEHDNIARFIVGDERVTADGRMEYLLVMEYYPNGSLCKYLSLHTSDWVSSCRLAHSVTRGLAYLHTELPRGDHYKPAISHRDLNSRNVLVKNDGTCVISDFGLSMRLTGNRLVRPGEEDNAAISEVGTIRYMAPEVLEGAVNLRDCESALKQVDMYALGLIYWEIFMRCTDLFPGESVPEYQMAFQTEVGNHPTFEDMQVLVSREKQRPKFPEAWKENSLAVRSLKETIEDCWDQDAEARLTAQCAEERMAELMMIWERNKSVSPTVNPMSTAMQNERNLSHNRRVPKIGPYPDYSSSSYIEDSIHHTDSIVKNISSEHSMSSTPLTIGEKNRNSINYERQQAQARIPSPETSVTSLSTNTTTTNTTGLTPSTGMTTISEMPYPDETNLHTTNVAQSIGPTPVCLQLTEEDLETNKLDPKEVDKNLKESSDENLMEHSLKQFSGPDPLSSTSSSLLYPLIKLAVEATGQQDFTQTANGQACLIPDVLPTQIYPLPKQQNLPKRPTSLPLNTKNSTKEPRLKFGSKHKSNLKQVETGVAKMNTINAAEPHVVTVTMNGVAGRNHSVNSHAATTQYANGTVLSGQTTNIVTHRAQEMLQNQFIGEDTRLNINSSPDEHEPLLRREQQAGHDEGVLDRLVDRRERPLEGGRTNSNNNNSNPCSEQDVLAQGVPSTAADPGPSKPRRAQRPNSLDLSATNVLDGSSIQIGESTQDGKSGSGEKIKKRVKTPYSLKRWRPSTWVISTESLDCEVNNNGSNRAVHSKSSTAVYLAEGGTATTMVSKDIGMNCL

[2] = molecular target: T2, Ephrin type-B receptor 2 (Homo sapiens) (UniProt P29323); assay: Selectivity interaction (Millipore kinase profiler) EUB0000124b EPHB2; details: at 10 µM
T2 sequence (whole entry): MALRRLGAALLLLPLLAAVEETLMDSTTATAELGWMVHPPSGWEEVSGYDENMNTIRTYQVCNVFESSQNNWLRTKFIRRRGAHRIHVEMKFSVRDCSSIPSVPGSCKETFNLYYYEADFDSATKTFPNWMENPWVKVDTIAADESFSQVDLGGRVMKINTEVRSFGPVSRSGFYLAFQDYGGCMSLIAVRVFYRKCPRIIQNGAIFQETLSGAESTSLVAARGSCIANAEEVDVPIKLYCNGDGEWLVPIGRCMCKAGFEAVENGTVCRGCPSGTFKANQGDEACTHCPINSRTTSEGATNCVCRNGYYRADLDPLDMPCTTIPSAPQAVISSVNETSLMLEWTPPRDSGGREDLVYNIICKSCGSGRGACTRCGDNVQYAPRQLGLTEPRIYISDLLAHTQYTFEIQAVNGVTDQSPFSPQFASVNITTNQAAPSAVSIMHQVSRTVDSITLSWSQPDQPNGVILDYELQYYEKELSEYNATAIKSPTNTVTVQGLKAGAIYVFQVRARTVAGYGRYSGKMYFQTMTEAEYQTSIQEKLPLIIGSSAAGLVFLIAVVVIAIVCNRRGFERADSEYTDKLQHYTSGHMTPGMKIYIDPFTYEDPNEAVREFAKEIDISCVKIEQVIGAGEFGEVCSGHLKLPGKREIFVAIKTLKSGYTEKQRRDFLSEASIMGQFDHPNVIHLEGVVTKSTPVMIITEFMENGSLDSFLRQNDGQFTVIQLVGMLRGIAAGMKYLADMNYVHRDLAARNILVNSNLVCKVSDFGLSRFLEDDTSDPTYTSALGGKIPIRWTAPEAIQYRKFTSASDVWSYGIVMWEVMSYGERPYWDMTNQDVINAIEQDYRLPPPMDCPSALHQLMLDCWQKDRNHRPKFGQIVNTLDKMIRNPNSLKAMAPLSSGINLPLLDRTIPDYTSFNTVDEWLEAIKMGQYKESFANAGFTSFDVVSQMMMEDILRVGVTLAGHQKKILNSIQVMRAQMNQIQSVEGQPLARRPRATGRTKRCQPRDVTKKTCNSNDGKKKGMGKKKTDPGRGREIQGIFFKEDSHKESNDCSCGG

[3] = molecular target: Serine/threonine-protein kinase PLK2 (Homo sapiens, UniProt Q9NYY3); assay: Selectivity interaction (KinomeScan (DiscoverX)) EUB0001619a PLK2; details: at 1 µM
[4] = molecular target: T3, Serine/threonine-protein kinase Chk1 (Homo sapiens) (UniProt O14757); assay: Selectivity interaction (ProQinase) EUB0000171b CHEK1
T3 sequence (whole entry): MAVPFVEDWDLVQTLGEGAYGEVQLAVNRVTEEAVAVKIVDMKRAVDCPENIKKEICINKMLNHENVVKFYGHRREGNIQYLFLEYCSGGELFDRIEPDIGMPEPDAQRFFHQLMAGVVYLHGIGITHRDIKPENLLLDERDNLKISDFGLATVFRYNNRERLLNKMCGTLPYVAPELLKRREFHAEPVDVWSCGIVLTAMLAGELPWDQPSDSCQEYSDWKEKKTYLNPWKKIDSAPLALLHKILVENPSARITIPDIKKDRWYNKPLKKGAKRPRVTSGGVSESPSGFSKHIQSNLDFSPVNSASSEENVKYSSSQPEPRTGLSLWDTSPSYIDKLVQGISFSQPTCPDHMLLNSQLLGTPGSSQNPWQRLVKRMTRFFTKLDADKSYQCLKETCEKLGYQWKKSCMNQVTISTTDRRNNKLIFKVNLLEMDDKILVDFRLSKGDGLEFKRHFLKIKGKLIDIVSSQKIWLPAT

Chain of Serine/threonine-protein kinase PLK2 (Q9NYY3 whole entry, looked up): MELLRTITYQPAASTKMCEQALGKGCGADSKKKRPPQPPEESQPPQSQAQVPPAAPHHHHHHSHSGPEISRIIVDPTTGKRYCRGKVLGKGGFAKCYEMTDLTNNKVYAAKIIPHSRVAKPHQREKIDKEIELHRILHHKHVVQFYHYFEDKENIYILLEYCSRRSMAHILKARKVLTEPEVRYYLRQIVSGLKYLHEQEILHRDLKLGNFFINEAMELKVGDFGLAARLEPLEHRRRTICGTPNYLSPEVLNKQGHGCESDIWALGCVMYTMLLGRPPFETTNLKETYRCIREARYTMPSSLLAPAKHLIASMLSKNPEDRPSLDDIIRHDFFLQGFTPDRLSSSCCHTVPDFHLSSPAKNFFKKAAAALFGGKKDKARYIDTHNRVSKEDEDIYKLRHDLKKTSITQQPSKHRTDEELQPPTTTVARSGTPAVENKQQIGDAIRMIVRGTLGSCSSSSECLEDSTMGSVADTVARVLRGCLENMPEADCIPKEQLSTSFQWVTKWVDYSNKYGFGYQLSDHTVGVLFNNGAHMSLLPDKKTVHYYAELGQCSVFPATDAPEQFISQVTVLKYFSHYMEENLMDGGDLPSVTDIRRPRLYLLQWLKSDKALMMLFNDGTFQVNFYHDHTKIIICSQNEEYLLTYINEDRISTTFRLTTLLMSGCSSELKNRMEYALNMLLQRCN

Structure (SMILES): Nc1cnc(N2CCc3cc(S(=O)(=O)Nc4c(F)cc(Cl)cc4F)cc(N4CCCC4=O)c32)nc1 [TP-020n]
% of control [1]: 100%

% of control [2]: 107%
Structure (SMILES): CC(=O)Nc1cccc(-n2c(=O)n(C3CC3)c(=O)c3c(Nc4ccc(I)cc4F)n(C)c(=O)c(C)c32)c1

Structure (SMILES): N#Cc1cccc(-c2c[nH]c3ncnc(N4CCOCC4)c23)c1
% of control [3]: 100%

% of control ([4]; at 1 µM): 94% | % of control ([4]; at 5 µM): 100%
Structure (SMILES): C=CC(=O)Nc1cccc(C(=O)Nc2ccc(Nc3cc(-c4[nH]c(SC)nc4C)ccn3)cc2)c1
